{"source": "paper PMC4715686", "about": "(Chemical biology & drug design, 2015)", "key": {"[1]": {"system": "T. brucei brucei 427 strain", "assay": "Antitrypanosomal activity, Alamar blue assay", "assay_type": "cell-based", "settings": "for IC50: Trypanosoma brucei, 24 h, read-out: IC50 T. brucei"}, "[2]": {"assay": "Hep G2 cell viability, MTT assay", "assay_type": "cell-based", "settings": "human"}, "rhodesain": {"biological_target": "rhodesain (Trypanosoma brucei rhodesiense, UniProt Q95PM0)", "assay": "Rhodesain inhibition assay", "assay_type": "biochemical, T. brucei rhodesiense"}}, "data": [{"smiles": "Nc1ccc(-c2nc3ccc(Cc4ccc5nc(-c6ccc(N)cc6)[nH]c5c4)cc3[nH]2)cc1", "note": "[Compound 1, 4,4′-[methylenebis(1H-benzimidazole-6,2-diyl)]-dianiline]", "values": [{"measurement": "IC50", "setting": "[1]", "result": "5.8 ± 1", "unit": "µM"}, {"measurement": "viability at 72 h, 20 µM", "setting": "[2]", "result": "84.7 ± 5.79", "unit": "%"}, {"measurement": "IC50", "setting": "rhodesain", "result": "890 ± 100", "unit": "nM"}]}, {"smiles": "O=C(c1ccccc1)c1ccc2[nH]c(-c3ccc(NC(=O)c4ccccc4Cl)cc3)nc2c1", "note": "[Compound 7, N-[4-(5-benzoyl-1H-benzimidazol-2-yl)phenyl]-2-chlorobenzamide]", "values": [{"measurement": "activity against T. brucei (in words)", "setting": "[1]", "result": "active"}, {"measurement": "selectivity for the parasite over Hep G2 cells (in words)", "setting": "[1]; T. brucei vs Hep G2 cells", "result": "considerable selectivity"}, {"measurement": "IC50", "setting": "[1]", "result": "2.83 ± 0.26", "unit": "µM"}, {"measurement": "viability at 72 h, 20 µM", "setting": "[2]", "result": "86.2 ± 9.67", "unit": "%"}, {"measurement": "IC50", "setting": "rhodesain", "result": "> 20000", "unit": "nM"}, {"measurement": "inhibitory activity against rhodesain (in words)", "setting": "rhodesain", "result": "did not display any inhibitory activity"}]}]}
